Source: US20250129104A1, “7H-PYRROLO[2,3-D]PYRIMIDINES AND PREPARATION AND USES THEREOF” (BioSplice Therapeutics, Inc., priority 2021, published 2025)

Columns and labels:
[1] = target: recombinant DYRK1A kinase (Homo sapiens (Human), UniProt Q13627); assay: DYRK1A kinase assay (Ser/Thr 18 peptide Z-lyte FRET assay); assay type: biochemical; settings: DYRK1A kinase activity; 15 μM ATP, 1 h room temperature; method text calls the value IC50
Summary of the method: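 Recombinant human DYRK1A (0.25 μg/mL) with 15 μM ATP and 4 μM Ser/Thr 18 peptide, 1 h at room temperature with compound (11-point, 1:3, 10 μM top, duplicate). Z-lyte development 1 h, then coumarin/fluorescein FRET emission ratio converted to % phosphorylation; IC50 by non-linear regression.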

[2] = system: Tau phosphorylation at Thr212 (pThr212); assay: tau phosphorylation assay: phosphoTau (Thr212) AlphaLISA in HEK293T cells transfected with DYRK1A and MAPT; assay type: cell-based; settings: HEK-293T; HEK293T cells transfected with human DYRK1A and MAPT; 18-24 h compound treatment; read-out: pTau (Thr212) EC50
Description: Representative compounds were screened using the assay procedure for tau phosphorylation activity described below.
HEK293T cells (ATCC, CRL3216) cultured in DMEM (Thermo Fisher Scientific, 10566024) supplemented with 10% FBS (Corning, 35-011-CV) and Penicillin/Streptomycin (Thermo Fisher Scientific, 15140163) were seeded in a 75 cm^2 flask at 8.1×10^6 cells/flask. The HEK293T cells were then transiently transfected with 5 μg DYRK1A (NM_001396) human untagged clone (OriGene, SC314641) and 2.5 μg MAPT (441 a.a. Tau gene) (NM_005910) human untagged clone (OriGene, TP313312) using Lipofectamine 3000 (Thermo Fisher Scientific, L30000015) and incubated for 20-30 hours in a humidified incubator at 37° C. and 5% CO2. Post-incubation, HEK293T cells transfected with the DYRK1A and MAPT expression vectors were harvested and seeded in BioCoat poly-D lysine coated 96-well plates (Corning, 354461) at 3×10^4 cells/well.
The above synthesized compounds were screened using the cell assay procedure to assess decreased Tau phosphorylation at Thr212 (pThr212) described below.
Each compound was dissolved in DMSO (Sigma-Aldrich, D8418-100 mL) as a 10 mM stock. 10 mM stocks were serially diluted 1:3, 10-point dose-response curve and added to the cells with a final concentration ranging from 20 μM to 1.1 nM. Cell were treated with compounds in duplicate and incubated for 18-24 hours in a humidified incubator at 37° C. and 5% CO2.
Following the overnight compound treatment, cells were lysed with 1× Alpha Surefire Ultra Lysis Buffer (Perkin Elmer, ALSU-LB-100ML) complemented with 1× Halt Phosphatase Inhibitor Cocktail (Thermo Fisher Scientific, 78427) and 1× Halt Protease Inhibitor Cocktail (Thermo Fisher Scientific, 78438). Lysates were spun down at 12,000 g for 10 min to remove any cellular debris and 5 μL of lysates were dispensed into a 384-well Opti-Plate (Perkin Elmer, 6007290) for the measurement of Tau phosphorylation in the phosphoTau (Thr212) AlphaLISA assay. Donor antibody, biotinylated HT7Tau (Thermo Fisher Scientific, MN1000B), and acceptor antibody, pThr212Tau (Thermo Fisher Scientific, 44740G) were both added to the cell lysates at a final concentration of 3 nM and incubated for 1 hour at room temperature. Following incubation of the lysates with the donor and acceptor antibodies, anti-rabbit IgG (Fc specific) AlphaLISA acceptor beads (Perkin Elmer, AL104C) were added at a 10 μg/mL final concentration and incubated for 1 hour at room temperature protected from light. Lastly, AlphaScreen streptavidin donor beads (PerkinElmer, 6760002) were added at 40 μg/mL final concentration and incubated for 1 hour at room temperature protected from light. Plates were read at […], and Em=615 nm on the EnVision Multilabel Plate Reader (Perkin Elmer). PhosphoTau (Thr212) AlphaLISA signal was used to plot, draw the curve fitting, and determine each compound's EC50 in Prism (GraphPad).

| Compound | EC50 [1] [µM] | EC50 [2] [µM] |
| --- | --- | --- |
| CN1CCC(Nc2ncc3c(-c4cc5cnccc5s4)c[nH]c3n2)CC1 [Compound 87, N-(1-Methylpiperidin-4-yl)-5-(thieno[3,2-c]pyridin-2-yl)-7H-pyrrolo[2,3-d]pyrimidin-2-amine] | 0.0068 | 0.107 |
| c1cn2cc(-c3c[nH]c4nc(C5CCC5)ncc34)ccc2n1 [Compound 103, 2-cyclobutyl-5-(imidazo[1,2-a]pyridin-6-yl)-7H-pyrrolo[2,3-d]pyrimidine] | 0.0219 | 4.5 |
| CC(C)(C)CNc1ncc2c(-c3ccc4nccn4c3)c[nH]c2n1 [Compound 110, 5-(Imidazo[1,2-a]pyridin-6-yl)-N-neopentyl-7H-pyrrolo[2,3-d]pyrimidin-2-amine] | 0.036 | 0.022 |
| CC(C)(F)CNc1ncc2c(-c3ccc4nccn4c3)c[nH]c2n1 [Compound 112, N-(2-Fluoro-2-methylpropyl)-5-(imidazo[1,2-a]pyridin-6-yl)-7H-pyrrolo[2,3-d]pyrimidin-2-amine] | 0.0028 | 0.113 |
| C[C@@H](Nc1ncc2c(-c3ccc4nccn4c3)c[nH]c2n1)C(F)(F)F [Compound 115, (R)-5-(Imidazo[1,2-a]pyridin-6-yl)-N-(1,1,1-trifluoropropan-2-yl)-7H-pyrrolo [2,3-d]pyrimidin-2-amine] | 0.0031 | 0.03 |
| CC[C@H](C)Nc1ncc2c(-c3ccc4ncc(F)n4c3)c[nH]c2n1 [Compound 154, (S)—N-(sec-Butyl)-5-(3-fluoroimidazo[1,2-a]pyridin-6-yl)-7H-pyrrolo[2,3-d]pyrimidin-2-amine] | 0.0259 | 0.476 |
| CC(C)(F)CNc1ncc2c(-c3ccc4ncc(F)n4c3)c[nH]c2n1 [Compound 155, N-(2-Fluoro-2-methylpropyl)-5-(3-fluoroimidazo[1,2-a]pyridin-6-yl)-7H-pyrrolo[2,3-d]pyrimidin-2-amine] | 0.0117 | 0.227 |
| COc1nc(CC(C)C)nc2[nH]cc(-c3cc(F)c4nccn4c3)c12 [Compound 187, 5-(8-Fluoroimidazo[1,2-a]pyridin-6-yl)-2-isobutyl-4-methoxy-7H-pyrrolo [2,3-d]pyrimidine] | 0.0203 | 0.765 |
| Fc1cc(-c2c[nH]c3nc(C4CC4)ncc23)cn2ccnc12 [Compound 189, 2-Cyclopropyl-5-(8-fluoroimidazo[1,2-a]pyridin-6-yl)-7H-pyrrolo[2,3-d]pyrimidine] | 0.0242 | 1.66 |
| CC[C@H](C)Nc1ncc2c(-c3cc(F)c4nccn4c3)c[nH]c2n1 [Compound 198, (S)—N-(sec-Butyl)-5-(8-fluoroimidazo[1,2-a]pyridin-6-yl)-7H-pyrrolo[2,3-d]pyrimidin-2-amine] | 0.0195 | 0.351 |
| COc1nc(N[C@H]2CC[C@@H](OC)CC2)nc2[nH]cc(-c3ccn4ncnc4c3)c12 [Compound 3384, 5-([1,2,4]Triazolo[1,5-a]pyridin-7-yl)-4-methoxy-N-(cis-4-methoxycyclohexyl)-7H-pyrrolo[2,3-d]pyrimidin-2-amine] | 0.0012 |  |
| FC(F)O[C@H]1CC[C@H](Nc2ncc3c(-c4ccn5nccc5n4)c[nH]c3n2)CC1 [Compound 3421, N-(trans-4-(difluoromethoxy)cyclohexyl)-5-(pyrazolo[1,5-a]pyrimidin-5-yl)-7H-pyrrolo[2,3-d]pyrimidin-2-amine] | 0.0281 |  |
| C[C@]1(O)CC[C@@H](Nc2ncc3c(-c4ccn5nccc5n4)c[nH]c3n2)CC1 [Compound 3426, (1s,4s)-1-Methyl-4-((5-(pyrazolo[1,5-a]pyrimidin-5-yl)-7H-pyrrolo[2,3-d]pyrimidin-2-yl)amino)cyclohexan-1-ol] | 0.0032 |  |
| CNc1nc(N[C@H]2CC[C@](C)(O)CC2)nc2[nH]cc(-c3ccn4nccc4n3)c12 [Compound 3454, trans-1-methyl-4-((4-(methylamino)-5-(pyrazolo[1,5-a]pyrimidin-5-yl)-7H-pyrrolo[2,3-d]pyrimidin-2-yl)amino)cyclohexan-1-ol] | 0.0034 |  |
| Cn1nnc2ccc(-c3c[nH]c4nc(N[C@H]5CC[C@@](C)(O)CC5)ncc34)cc21 [Compound 3643, (1s,4s)-1-Methyl-4-((5-(1-methyl-1H-benzo[d][1,2,3]triazol-6-yl)-7H-pyrrolo[2,3-d]pyrimidin-2-yl)amino)cyclohexan-1-ol] | 0.0007 |  |
| N-(4,4-Difluorocyclohexyl)-4-methoxy-5-(pyrazolo[1,5-a]pyrimidin-5-yl)-7H-pyrrolo[2,3-d]pyrimidin-2-amine [Compound 2223] | 0.0094 |  |
| N-(cis-3-Methoxycyclobutyl)-5-(1-methyl-1H-benzo[d][1,2,3]triazol-6-yl)-7H-pyrrolo[2,3-d]pyrimidin-2-amine [Compound 2051] | 0.0078 |  |
| N-(cis-4-(Methoxy-d3)cyclohexyl)-5-(pyrazolo[1,5-a]pyrimidin-5-yl)-7H-pyrrolo[2,3-d]pyrimidin-2-amine [Compound 2221] | 0.0036 |  |

Continued, values first:

| EC50 [1] [µM] | EC50 [2] [µM] | Compound |
| --- | --- | --- |
| 0.0145 | 0.36 | Cc1nc2ccc(-c3c[nH]c4nc(NCC(C)(C)F)ncc34)cc2s1 [Compound 24, N-(2-Fluoro-2-methylpropyl)-5-(2-methylbenzo[d]thiazol-6-yl)-7H-pyrrolo [2,3-d]pyrimidin-2-amine] |
| 0.0096 | 0.117 | C[C@H](Nc1ncc2c(-c3ccc4nccn4c3)c[nH]c2n1)C(F)(F)F [Compound 116, (S)-5-(Imidazo[1,2-a]pyridin-6-yl)-N-(1,1,1-trifluoropropan-2-yl)-7H-pyrrolo [2,3-d]pyrimidin-2-amine] |
| 0.0265 | 0.361 | COC[C@H](C)Nc1ncc2c(-c3ccc4ncc(F)n4c3)c[nH]c2n1 [Compound 161, (S)-5-(3-Fluoroimidazo[1,2-a]pyridin-6-yl)-N-(1-methoxypropan-2-yl)-7H-pyrrolo[2,3-d]pyrimidin-2-amine] |
| 0.0056 |  | CO[C@H]1CC[C@H](Nc2ncc3c(-c4ccn5nccc5n4)c[nH]c3n2)CC1 [Compound 3420, N-(trans-4-Methoxycyclohexyl)-5-(pyrazolo[1,5-a]pyrimidin-5-yl)-7H-pyrrolo[2,3-d]pyrimidin-2-amine] |
| 0.0023 |  | c1cc2nc(-c3c[nH]c4nc(NC5CCC6(CC5)COC6)ncc34)ccn2n1 [Compound 3435, 5-(Pyrazolo[1,5-a]pyrimidin-5-yl)-N-(2-oxaspiro[3.5]nonan-7-yl)-7H-pyrrolo[2,3-d]pyrimidin-2-amine] |
| 0.209 |  | CNc1nc(N2CC3(CO)CCC2CC3)nc2[nH]cc(-c3ccn4nccc4n3)c12 [Compound 3459, (2-(4-(methylamino)-5-(pyrazolo[1,5-a]pyrimidin-5-yl)-7H-pyrrolo[2,3-d]pyrimidin-2-yl)-2-azabicyclo[2.2.2]octan-4-yl)methanol] |
| 0.0019 |  | CNc1nc(NC2CCC3(CC2)COC3)nc2[nH]cc(-c3ccn4nccc4n3)c12 [Compound 3461, N^4-Methyl-5-(pyrazolo[1,5-a]pyrimidin-5-yl)-N^2-(2-oxaspiro[3.5]nonan-7-yl)-7H-pyrrolo[2,3-d]pyrimidine-2,4-diamine] |
| 0.0007 |  | COc1nc(N[C@H]2CC[C@@H](OC)CC2)nc2[nH]cc(-c3ccc4nccnc4c3)c12 [Compound 3575, 4-Methoxy-N-(cis-4-methoxycyclohexyl)-5-(quinoxalin-6-yl)-7H-pyrrolo[2,3-d]pyrimidin-2-amine] |
| 0.0016 |  | COc1nc(NC2CCC3(CC2)COC3)nc2[nH]cc(-c3ccc4nccnc4c3)c12 [Compound 3590, 4-Methoxy-5-(quinoxalin-6-yl)-N-(2-oxaspiro[3.5]nonan-7-yl)-7H-pyrrolo[2,3-d]pyrimidin-2-amine] |
| 0.0154 |  | cis-4-((4-Ethoxy-5-(pyrazolo[1,5-a]pyrimidin-5-yl)-7H-pyrrolo[2,3-d]pyrimidin-2-yl)amino)cyclohexan-1-ol [Compound 2225] |
